Reference: patent US12630502B2, “Compounds, compositions and polymer films” (Fujifilm Manufacturing Europe B.V., priority 2020, dated 2026)
Structures can show the parent of a compound that is named as a salt.

Assay: Solubility in water at 40° C. (visual or UV-spectrometry)
Assay type: physicochemical
Settings: kept overnight, 500 ppm 4OH-TEMPO
Protocol: The solubility of the compounds of Formula (I) was determined visually or by UV-spectrometry. For each compound of Formula (I), three solutions were prepared at 40° C.: one solution at 30 wt %, one solution at 60 wt %, and one solution at 70 wt %. 500 ppm 4OH-TEMPO was included in all three solutions to prevent premature polymerisation. The solutions were kept in a water bath of 40° C. overnight and centrifuged prior inspection. UV spectra were recorded in a Cary™ 100 UV-visible spectrophotometer from Agilent Technologies using a 1 mm path length quartz cuvette.

Compound	Solubility in water at 40° C. [wt %]
C=Cc1ccc(S(=O)(=O)NS(C)(=O)=O)c(C=C)c1 [XL-D, Benzenesulphonamide, 2,4-diethenyl-N-(methylsulphonyl)-, lithium salt]	>70
C=Cc1ccc(S(=O)(=O)NS(=O)(=O)c2ccc(C=C)cc2)cc1 [XL-B, Benzenesulphonamide, 4-ethenyl-N-[(4-ethenylphenyl)sulphonyl]-, lithium salt]	56
C=Cc1ccc(S(=O)(=O)[N-]S(=O)(=O)c2cccc(S(=O)(=O)[N-]S(=O)(=O)c3ccc(C=C)cc3)c2)cc1.[Li+].[Li+] [XL-2, 1,3-[N-(ethenylphenylsulphonyl)benzenesulphonamide], dilithium salt]	>70
Divinylbenzenesulphonate, Sodium salt [DVBS-Na, reference compound]	8
